Assays:
Type in all cases: in vivo
Lindernia pyxidaria [1] = test: Test Example 11: herbicidal effect test by soil treatment in paddy field; conditions: 120 g/10a active ingredient, 14 days after treatment
In short: (§1)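 Pre-emergence flooded-paddy test: the water-diluted emulsifiable concentrate, 120 g active ingredient per 10 are, was dripped into pots immediately after seeding, with water held at about 3 cm. Two replicate pots per rate; 14 days after treatment, plant dry weight versus untreated pots gave the weed suppression rate.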

Monochoria vaginalis [2] = test: as above; conditions: 120 g/10a active ingredient, 14 days after treatment
In short: as §1

Scirpus juncoides [3] = test: as above; conditions: 120 g/10a active ingredient, 14 days after treatment
In short: as §1

Echinochloa crus-galli [4] = test: as above; conditions: 120 g/10a active ingredient, 14 days after treatment
In short: as §1

crabgrass [5] = test: Test Example 13: herbicidal effect test by soil treatment in upland field; conditions: 120 g/10a, 14 days after treatment
In short: (§2)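 Weed suppression rate (%) computed at 14 days as 1 minus treated/untreated mean dry weight, times 100, with two replicates per concentration. Emulsifiable concentrate diluted in water was applied at 120 g a.i. per 10 are (100 liter per 10 are) onto soil surface one day post-sowing of 20 seeds each in 36 cm^2 pots of alluvial soil.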

Chenopodium album [6] = test: as above; conditions: 120 g/10a, 14 days after treatment
In short: as §2

Echinochloa crus-galli [7] = test: as above; conditions: 120 g/10a, 14 days after treatment
In short: as §2

Amaranthus viridis [8] = test: as above; conditions: 120 g/10a, 14 days after treatment
In short: as §2

Lindernia pyxidaria [9] = test: Test Example 12: herbicidal effect test by treatment during growing period in paddy field; conditions: 120 g/10a; treatment seven days after sowing in flooded paddy pot; assessed 14 days after treatment
In short: (§3)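 Paddy soil + NPK 17:17:17, puddled; 30 seeds/species sown 0–1 cm; flooded ~3 cm, greenhouse. Day 7 post-sowing: EC diluted in water, applied dropwise into water, 120 g a.i./10 are. Day 14 post-treatment: dry weight vs untreated → % suppression; n=2.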

Monochoria vaginalis [10] = test: as above; conditions: 120 g/10a; treatment seven days after sowing in flooded paddy pot; assessed 14 days after treatment
In short: as §3

Scirpus juncoides [11] = test: as above; conditions: 120 g/10a; treatment seven days after sowing in flooded paddy pot; assessed 14 days after treatment
In short: as §3

Echinochloa crus-galli [12] = test: as above; conditions: 120 g/10a; treatment seven days after sowing in flooded paddy pot; assessed 14 days after treatment
In short: as §3

Echinochloa crus-galli [13] = test: Test Example 14: herbicidal effect test by foliage treatment in upland field; conditions: 7 days after sowing, 120 g/10a, 14 days after treatment
In short: (§4)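 Dry-weight read-out: suppression (%) = (1 − mean treated dry weight/mean untreated dry weight)×100, at 14 days post-spray, two replicate plots per concentration. Spray applied 7 days after sowing, 120 g a.i. per 10 are.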

Amaranthus viridis [14] = test: as above; conditions: 7 days after sowing, 120 g/10a, 14 days after treatment
In short: as §4

crabgrass [15] = test: as above; conditions: 7 days after sowing, 120 g/10a, 14 days after treatment
In short: as §4

Chenopodium album [16] = test: as above; conditions: 7 days after sowing, 120 g/10a, 14 days after treatment
In short: as §4

| Structure (SMILES) | Weed suppression rate (%) Lindemia pyxidaria (Lindernia pyxidaria [1]) | Weed suppression rate (%) Monochoria vaginalis (Monochoria vaginalis [2]) | Weed suppression rate (%) Scirpus juncoides (Scirpus juncoides [3]) | Weed suppression rate (%) Echinochloa crus-galli (Echinochloa crus-galli [4]) | herbicidal effect, Crabgrass (crabgrass [5]) | herbicidal effect, Chenopodium album (Chenopodium album [6]) | herbicidal effect, Echinochloa crus-galli (Echinochloa crus-galli [7]) | herbicidal effect, Amaranthus viridis (Amaranthus viridis [8]) | Weed suppression rate (%) Lindemia pyxidaria (Lindernia pyxidaria [9]) | Weed suppression rate (%) Monochoria vaginalis (Monochoria vaginalis [10]) | Weed suppression rate (%) Scirpus juncoides (Scirpus juncoides [11]) | Weed suppression rate (%) Echinochloa crus-galli (Echinochloa crus-galli [12]) | herbicidal effect, Echinochloa crus-galli (Echinochloa crus-galli [13]) | herbicidal effect, Amaranthus viridis (Amaranthus viridis [14]) | herbicidal effect, Crabgrass (crabgrass [15]) | herbicidal effect, Chenopodium album (Chenopodium album [16]) |
| --- | --- | --- | --- | --- | --- | --- | --- | --- | --- | --- | --- | --- | --- | --- | --- | --- |
| CC(C)N(C(=O)n1cnn(S(=O)(=O)c2c(F)cccc2F)c1=O)c1ccccc1 [Compound 11-762] | 90% | 90% | 40% | 90% | 90% | 60% | 80% | 60% | 60% | 90% | 80% | 80% | 90% | 70% | 90% | 60% |
| CC(C)N(C(=O)n1cnn(S(=O)(=O)c2c(F)c(F)c(F)c(F)c2F)c1=O)c1ccccc1 [Compound 11-800] | 90% | 80% | 90% | 90% | 90% | 70% | 60% | 70% | 60% | 90% | 90% | 90% | 90% | 100% | 90% | 100% |
| Cc1cc(C)c(S(=O)(=O)n2ncn(C(=O)N(c3ccccc3)C(C)C)c2=O)c(C)c1 [Compound 11-852] | 90% | 90% | 90% | 100% | 80% | 60% | 80% | 60% | 90% | 90% | 90% | 80% | 60% | 60% | 90% | 70% |
| Cc1cc(C)c(S(=O)(=O)n2ncn(C(=O)N(c3ccc(F)cc3F)C(C)C)c2=O)c(C)c1 [Compound 11-863] | 100% | 100% | 100% | 100% | 70% | 50% | 60% | 50% | 90% | 90% | 90% | 90% | 70% | 50% | 60% | 70% |
| Cc1cc(C)c(S(=O)(=O)n2ncn(C(=O)N(c3ccc(F)cc3Cl)C(C)C)c2=O)c(C)c1 [Compound 11-870] | 80% | 80% | 90% | 90% | 90% | 80% | 80% | 90% | 80% | 80% | 90% | 90% | 80% | 90% | 90% | 80% |
| Cc1cc(C)c(S(=O)(=O)n2ncn(C(=O)N(c3ccc(F)cc3C)C(C)C)c2=O)c(C)c1 [Compound 11-876] | 100% | 100% | 100% | 100% | 100% | 100% | 100% | 70% | 100% | 100% | 100% | 100% | 90% | 30% | 100% | 30% |
| CC(C)N(C(=O)n1cnn(S(=O)(=O)c2cccs2)c1=O)c1ccc(F)cc1F [Compound 11-1022] | 100% | 90% | 100% | 100% | 100% | 100% | 100% | 70% | 90% | 90% | 90% | 90% | 90% | 0% | 70% | 40% |
| CC(C)N(C(=O)n1cnn(S(=O)(=O)c2cccs2)c1=O)c1ccc(F)cc1Cl [Compound 11-1029] | 80% | 80% | 90% | 90% | 90% | 80% | 80% | 90% | 80% | 80% | 90% | 90% | 80% | 90% | 90% | 80% |

Source: patent US11076595B2, “1-(n,n-disubstituted carbamoyl) 4-(substituted sulfonyl)triazolin-5-one derivative, 4-(n,n-disubstituted carbamoyl) 1-(substituted sulfonyl)triazolin-5-one derivative, and herbicide containing said derivative as active ingredient” (HOKKO CHEMICAL INDUSTRY CO., LTD., priority 2017, dated 2021)
